Columns and labels:
[1] = target: T1, hP2X3 (Homo sapiens, UniProt P56373); experiment: FLIPR intracellular calcium assay, hP2X3; format: cell-based; conditions: human P2X3-HEK cells, agonist at EC75
T1 construct: host or cells: HEK (hP2X3-HEK)
T1 sequence (P56373 1-397): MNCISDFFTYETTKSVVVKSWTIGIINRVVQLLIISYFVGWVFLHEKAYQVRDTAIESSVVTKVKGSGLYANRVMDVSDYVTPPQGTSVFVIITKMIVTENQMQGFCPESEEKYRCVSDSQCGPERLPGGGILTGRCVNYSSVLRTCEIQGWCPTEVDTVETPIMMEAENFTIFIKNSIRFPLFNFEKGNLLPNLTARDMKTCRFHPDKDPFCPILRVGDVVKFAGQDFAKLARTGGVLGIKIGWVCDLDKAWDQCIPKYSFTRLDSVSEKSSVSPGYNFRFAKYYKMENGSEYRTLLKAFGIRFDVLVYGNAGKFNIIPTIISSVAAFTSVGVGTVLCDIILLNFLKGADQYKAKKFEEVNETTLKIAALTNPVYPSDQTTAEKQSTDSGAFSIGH
Source text: (§1) The FLIPR® assay utilizes cells which express human or rat P2X3 or P2X2/3 receptors. Recombinant cells expressing hP2X3 (Cat #6188) and hP2X2/3 (Cat #6179) were procured from Chantest Corp. Rat P2X2 (NCBI Accession No: U14414) was amplified by PCR from PC12 cDNA (a rat adrenal medulla cell line). The PCR product obtained containing the protein coding sequence of rat P2X2 was cloned into EcoRV-digested and dephosphorylated vector plRES-puro3 within the multiple cloning site (MCS). See, FIG. 1A.
(§2) (i) Intracellular Calcium Assay Protocol for Screening Compounds
(§3) Cryo-vial containing 6×10^6 cells (human P2X3-HEK/human P2X2/3-TRex293/rat P2X2/3-TRex293/rat P2X3 TRex-CHO) was thawed in a 37° C. water bath. Cells were suspended in 20 mL of respective cell plating media (See annexure for composition) in a 50 mL centrifuge tube. The cell viability was checked with the help of Trypan Blue dye. Upon washing, cells were plated in a black 384-well clear bottomed, sterile poly-D-lysine coated plate such that, each well contained 10,000 cells (15,000/well for hP2X3) in 30 μL cell plating media. The plate was incubated in a 5% CO2 incubator at 37° C. for 24 h.
(§4) The next day, prior to the assay, the cell plating media was removed from each well by decanting and gentle tapping. Thirty μL of FLIPR Calcium 4 dye solution was added to each well. The plate was incubated at 37° C. for 45 min (60 min for hP2X3). The plate was next equilibrated at room temperature for 15 minutes before placing it in a 384 well FLIPR for the assay.
(§5) Compounds were dissolved in DMSO and serially diluted following 11 point half log (3.16 fold) dilution with a starting concentration of 2 mM. Dilutions were mixed with assay buffer just before performing the assay.
(§6) Compounds were added to the respective wells of the assay-ready cell plate with the help of the FLIPR and fluorescence readings were captured for 5 min to observe any possible agonistic property of the compounds. The plate was then incubated at room temperature for 15 min. The cells were stimulated with respective agonist EC75 concentration and the fluorescence readings were captured for another 5 min by FLIPR. The difference in fluorescence readings in presence of the compounds were compared with that of the control wells (wells having no compound) to calculate the inhibitory potency of the compounds. The IC50 values of the compounds were determined using the Graph pad Prism software.
(§7) (ii) Cell Plating Media for hP2X3-HEK and hP2X2/3-TRex293 Cells • DMEM/F12 (1:1) HAM media (Invitrogen; Cat #11039) • 1×NEAA (Invitrogen; Cat #11140) • 25 mM HEPES (Invitrogen; Cat #15630) • 1 mM sodium pyruvate (Invitrogen; Cat #11360) • 10% tetracycline negative FBS (PAA; Cat #A15-209) • 1 μg/mL doxycycline (Clontech; Cat #63131) [for hP2X2/3-TRex293 cells only]
(§8) (v) Assay Buffer Composition • HBSS (Invitrogen Cat #14025) • 20 mM HEPES (Invitrogen Cat #15630) • 0.01% F127 (Sigma Cat #P2443) • 1.8 mM CaCl2 (Sigma Cat #C5080) • pH adjusted to 7.4
(§9) (vi) Dye Solution Composition • 1× FLIPR Calcium 4 dye in assay buffer (Molecular devices Cat #R8141) • 1.8 mM Probenecid (Sigma Cat #P8761) • pH adjusted to 7.4

[2] = target: T2, hP2X2/3 (Homo sapiens, UniProt P56373+Q9UBL9); experiment: FLIPR intracellular calcium assay, hP2X2/3; format: cell-based; conditions: human P2X2/3-TRex293 cells, agonist at EC75
T2 construct: host or cells: TRex293 (hP2X2/3-TRex293), doxycycline-induced
T2 sequence (P56373 1-397): T1 sequence (P56373 1-397)
T2 sequence (Q9UBL9 1-471): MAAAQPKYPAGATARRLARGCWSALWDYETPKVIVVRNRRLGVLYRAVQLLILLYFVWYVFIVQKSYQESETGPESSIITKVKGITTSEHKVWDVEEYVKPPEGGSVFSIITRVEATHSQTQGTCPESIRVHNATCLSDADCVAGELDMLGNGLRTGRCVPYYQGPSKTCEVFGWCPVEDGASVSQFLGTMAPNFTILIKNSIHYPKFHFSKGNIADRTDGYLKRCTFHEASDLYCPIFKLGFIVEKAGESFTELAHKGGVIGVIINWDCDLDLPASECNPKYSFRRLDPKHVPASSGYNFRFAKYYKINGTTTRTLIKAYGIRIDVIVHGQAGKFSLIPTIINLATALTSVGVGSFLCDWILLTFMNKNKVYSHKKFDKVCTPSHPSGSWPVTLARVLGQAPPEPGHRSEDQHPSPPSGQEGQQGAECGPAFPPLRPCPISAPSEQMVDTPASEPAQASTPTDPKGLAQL
Source text: as §1, §2, §3, §4, §5, §6, §7, §8, §9

| SMILES | IC50 [1] [µM] | IC50 [2] [µM] |
| --- | --- | --- |
| CC(=O)N1CCN(c2nc(NCc3cnc4ccccc4c3)c3c(cnn3C(C)C)n2)CC1 [Example 14] | 0.1 to 1 | > 10 |
| CCC(CC)n1ncc2nc(N3CCN(C(C)=O)CC3)nc(N[C@H](CC)c3cnc4ccccc4c3)c21 [Example 35] | 0.001 to 0.1 | 0.1 to 1 |
| CCOc1ccc(C(C)Nc2nc(N3CCN(C(C)=O)CC3)nc3cnn(C(CC)CC)c23)cc1 (centres unmarked) [Example 30] | 0.001 to 0.1 | 1 to 10 |
| CCC(C)n1ncc2nc(N3CCOC(C#N)C3)nc(N[C@@H](c3cnc4ccccc4c3)C3CC3)c21 (some centres unmarked) [Example 76] | 0.1 to 1 | 1 to 10 |
| CC[C@H](C)n1ncc2nc(N3CCN(C(C)=O)CC3)nc(NC(COC)c3cnc4ccccc4c3)c21 (some centres unmarked) [Example 82] | 0.001 to 0.1 | 1 to 10 |
| CCC(C)n1ncc2nc(-c3cnn(CCO)c3)nc(N[C@H](C)c3cnc4ccccc4c3)c21 (stereo partly drawn) [Example 113, 2-{4-[1-sec-Butyl-7-((R)-1-quinolin-3-yl-ethylamino)-1H-pyrazolo[4,3-d]pyrimidin-5-yl]-pyrazol-1-yl}-ethanol] | 0.001 to 0.1 | 1 to 10 |
| CCC(CC)n1ncc2nc(N3CCN(C(C)=O)CC3)nc(N[C@H](C)c3cnc4ccc(F)cc4c3)c21 [Example 61] | 0.001 to 0.1 | 0.1 to 1 |
| CCC(C)n1cc2nc(N3CCN(C(C)=O)CC3)nc(NC(C)c3cnc4ccccc4c3)c2n1 (centres unmarked) [Example 4] | 0.001 to 0.1 | > 10 |
| CCC(C)n1ncc2nc(N3CCN(C(C)=O)CC3)nc(N[C@@H](C)c3cnc4ccccc4c3)c21 (some centres unmarked) [Example 18] | 0.1 to 1 | 1 to 10 |
| CCC(C)n1ncc2nc(N3CCN(C(=N)N)CC3)nc(N[C@@H](c3cnc4ccccc4c3)C3CC3)c21 (stereo partly drawn) [Example 112, 4-{1-sec-Butyl-7-[((R)-cyclopropyl-quinolin-3-yl-methyl)-amino]-1H-pyrazolo[4,3-d]pyrimidin-5-yl}-piperazine-1-carboxamidine] | 0.001 to 0.1 | 0.001 to 0.1 |
| CCC(C)n1cc2nc(N3CCN(C(C)=O)CC3)nc(N[C@H](C)c3cnc4ccccc4c3)c2n1 (some centres unmarked) [Example 5] | 0.001 to 0.1 | > 10 |
| CCC(CC)n1ncc2nc(N3CCN(C(C)=O)CC3)nc(NC(C)c3ccc4oc(C)cc4c3)c21 (centres unmarked) [Example 46] | 0.001 to 0.1 | 0.1 to 1 |

Results, then the compound that gave them:

| IC50 [1] [µM] | IC50 [2] [µM] | SMILES |
| --- | --- | --- |
| 0.001 to 0.1 | 0.1 to 1 | CCC(C)n1ncc2nc(-c3cnn(CC)c3)nc(N[C@@H](c3cnc4ccccc4c3)C3CC3)c21 (some centres unmarked) [Example 115] |
| 0.001 to 0.1 | 0.1 to 1 | CC[C@H](C)n1ncc2nc(N3CCN(C(C)=O)CC3)nc(NC(CO)c3cnc4ccccc4c3)c21 (some centres unmarked) [Example 81] |
| 0.001 to 0.1 | 0.001 to 0.1 | CC[C@@H](C)n1ncc2nc(N3CCN(C(N)=O)CC3)nc(N[C@@H](c3cnc4ccccc4c3)C3CC3)c21 [Example 70] |
| 0.001 to 0.1 | 0.001 to 0.1 | CC(C1CC1)n1ncc2nc(N3CCN(C(N)=O)CC3)nc(N[C@@H](c3cnc4ccccc4c3)C3CC3)c21 (some centres unmarked) [Example 86] |
| 0.001 to 0.1 | 1 to 10 | CC[C@H](C)n1ncc2nc(N3CCN(C(N)=O)CC3)nc(NC(c3cnc4ccccc4n3)C3CC3)c21 (some centres unmarked) [Example 83] |
| 0.001 to 0.1 | 1 to 10 | CC(=O)N1CCN(c2nc(N[C@H](C)c3cnc4ccccc4c3)c3nn(C(C)C)c(Cl)c3n2)CC1 [Example 99] |
| 0.001 to 0.1 | 0.1 to 1 | CC[C@H](C)n1ncc2nc(-c3cnn(CCF)c3)nc(NC(CO)c3cnc4ccccc4c3)c21 (some centres unmarked) [Example 122] |
| 0.001 to 0.1 | > 10 | CC(=O)N1CCN(c2nc(N[C@H](C)c3cnc4ccccc4c3)c3c(n2)c(C#N)nn3C(C)C)CC1 [Example 104] |
| 0.001 to 0.1 | 1 to 10 | CC(=O)N1CCN(c2nc(N[C@H](C)c3cnc4ccccc4c3)c3c(cnn3C(C)C)n2)CC1 [Example 12] |
| 0.001 to 0.1 | 0.001 to 0.1 | CC(=O)N1CCN(c2nc(N[C@H](C)c3cnc4ccccc4c3)c3c(cnn3C(C3CC3)C3CC3)n2)CC1 [Example 34] |
